According to patent US9216992B2, “Thieno[3,2-c]pyridine potassium channel inhibitors” (Xention Limited, priority 2005, dated 2015):

Assays:
human Kv1.3 = target: T1, human Kv1.3 (Homo sapiens, UniProt P22001); test: Kv1.3 Autopatch Electrophysiology; format: cell-based; conditions: 1 μM compound, CHO cells stably transfected with human Kv1.3, AutoPatch whole cell mode, room temperature; for inhibition at 1 µM: read-out: Kv 1.3% Inhibition at 1 μM
T1 construct: expressed in transfected cells; host or cells: stably transfected cells
Experimental: Kv1.3 Autopatch Electrophysiology Method
(§1) Cells stably transfected with cDNA for human Kv1.3 (in pcDNA3.1) were grown in Ex-cell 302 serum-free medium for CHO cells, supplemented with 10 μl/ml [100×] glutamine, 500 μg/ml G418 (gentimicin), and 1% HT supplement (50×, hypoxanthine and thymidine). Compounds were tested on these cells using the AutoPatch technology in whole cell mode.
The external bathing solution contained (in mM): 150 NaCl, 10 KCl, 1 MgCl2, 3 CaCl2, 10 HEPES, pH 7.4 with NaOH. Patch pipettes were filled with an electrode solution of composition (in mM): 100 K-Gluconate, 20 KCl, 1 MgCl2, 1 CaCl2, 10 HEPES, 11 EGTA, 5 ATP—Na2, 2 Glutathione pH 7.2 with KOH.
(§2) Compounds were dissolved in DMSO (100%) and made up in the external bather at a concentration of 1 μM. All experiments were conducted at room temperature (22-24° C.).
(§3) A cell suspension (10 ml), with a density of 100,000 cells/ml, was aliquoted into a 15 ml centrifuge tube and transferred to an incubator (37° C., 5% CO2) for approximately one hour before use. Following 60 min incubation, a tube was taken and centrifuged at 1000 rpm for 4 mins at room temperature. 9.5 ml supernatant was thence discarded, leaving a cell pellet at the bottom of the tube. The pellet was then resuspended using 100 μl of cold (4° C.), filtered (0.22 μm), 0.2% BSA/bather solution (0.02 g BSA/10 ml bather). The bottom of the tube was manually agitated gently until the solution became cloudy with cells. The 100 μl cell resuspension solution was then stored on the bench at 4° C. (using a Peltier-based temperature control device) until used.
(§4) A length of capillary glass (1B150F-4, WPI) was dipped into the cell suspension solution, such that ˜3 cm column of fluid was taken up by capillary action. A Ag/AgCl wire was dropped into the non-dipped end of the capillary also. The outside of the solution-filled end of the capillary was then dried and the capillary was loaded into the AutoPatch™. Borosilicate glass patch pipettes (from 1.5 mm OD, thin-walled filamented, GC150-TF capillary glass, Harvard) were pulled using a DMZ pipette puller (Zeitz Instruments), and were back-filled using the internal pipette solution, being careful that no bubbles remain at the tip or in the body of the pipette. Patch pipettes typically had resistances of 2.3-3.5 MΩ. Once filled, the pipette tip and a proportion of the shaft (˜15 mm) were dipped into Sigmacote (Sigma). The recording pipette was then loaded into the AutoPatch™. Automated patch-clamping was initiated by the operator, but thereafter AutoPatch.exe continued the experiment providing that pre-set conditions and criteria were satisfied.
(§5) Whole cell patch-clamp recordings were made using the AutoPatch™ rig, which incorporated an EPC9 or EPC10 amplifier (HEKA, Germany) under control of Pulse software (v8.54 or v8.76, HEKA, Germany), a motion controller with 2 translators (Newport, UK), valve controller (VF1) and a c-level suction device all at room temperature (22-24° C.). This equipment was completely under the control of AutoPatch.exe and operator intervention was only made when there was a requirement to refill the drug reservoirs or to prevent the loss of a cell due to a technical error. Cells with an Rseries greater than 18 MΩ were discounted from the experiment.
(§6) Qualification stages prior to perfusion and drug application ensured that the observed current met the criteria for the experiment. Only those cells with an IK>400 pA were used for experiments. Cells were continuously perfused with external solution at a flow rate of 1.8-2 ml/minute. […] Online analysis of the hKv1.3 current during the application of compounds was performed by the AutoPatch™ software. Voltage-step protocols and analysis of data was performed as described for conventional electrophysiology.
(§7) Electrophysiology voltage-step protocols and analysis of data was performed as follows. Data was sampled at 5 kHz, and filtered with a −3 dB bandwidth of 2.5 kHz. Cells were held at a voltage of −80 mV. […]

human Kv1.5 = target: T2, human Kv1.5 (Homo sapiens, UniProt P22460); test: Kv1.5 Autopatch Electrophysiology; format: cell-based; conditions: 1 μM compound, CHO cells stably transfected with human Kv1.5, AutoPatch whole cell mode, room temperature; for inhibition at 1 µM: read-out: Kv 1.5% Inhibition at 1 μM
T2 construct: expressed in transfected cells; host or cells: stably transfected cells
Experimental: Kv1.5 Autopatch Electrophysiology Method
as §1, with “Kv1.5” for “Kv1.3”, “pEF6::VA-His-TOPO)” for “pcDNA3.1)”, “5” for “500”, “blasticidin” for “G418 (gentimicin),”
The external bathing solution contained (in mM): 150 NaCl, 10 KCl, 1 MgCl2, 3 CaCl2, 10 HEPES, pH 7.4 with NaOH. Patch pipettes were filled with an electrode solution of composition (in mM): 160 KCl, 0.5 MgCl2, 10 HEPES, 1 EGTA, pH 7.4 with KOH.
as §2, §3, §4, §5
as §6, with “IK>500” for “IK>400”, “hKv1.5” for “hKv1.3”
as §7

T1 sequence (P22001 whole entry): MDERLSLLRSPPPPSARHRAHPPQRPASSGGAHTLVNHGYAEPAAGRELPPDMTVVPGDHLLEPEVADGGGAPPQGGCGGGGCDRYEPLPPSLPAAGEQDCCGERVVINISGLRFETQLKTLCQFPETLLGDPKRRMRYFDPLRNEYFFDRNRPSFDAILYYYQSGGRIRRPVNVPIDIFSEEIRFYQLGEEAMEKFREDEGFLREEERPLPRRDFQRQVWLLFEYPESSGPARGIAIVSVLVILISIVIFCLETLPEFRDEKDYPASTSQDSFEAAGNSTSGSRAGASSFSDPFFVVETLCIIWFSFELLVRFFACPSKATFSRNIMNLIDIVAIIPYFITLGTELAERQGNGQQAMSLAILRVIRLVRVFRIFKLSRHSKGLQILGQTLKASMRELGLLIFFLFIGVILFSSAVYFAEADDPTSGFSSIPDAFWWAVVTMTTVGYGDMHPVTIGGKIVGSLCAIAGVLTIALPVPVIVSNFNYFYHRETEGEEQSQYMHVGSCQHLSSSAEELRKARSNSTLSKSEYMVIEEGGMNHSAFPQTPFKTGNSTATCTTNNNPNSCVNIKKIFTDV
T2 sequence (P22460 whole entry): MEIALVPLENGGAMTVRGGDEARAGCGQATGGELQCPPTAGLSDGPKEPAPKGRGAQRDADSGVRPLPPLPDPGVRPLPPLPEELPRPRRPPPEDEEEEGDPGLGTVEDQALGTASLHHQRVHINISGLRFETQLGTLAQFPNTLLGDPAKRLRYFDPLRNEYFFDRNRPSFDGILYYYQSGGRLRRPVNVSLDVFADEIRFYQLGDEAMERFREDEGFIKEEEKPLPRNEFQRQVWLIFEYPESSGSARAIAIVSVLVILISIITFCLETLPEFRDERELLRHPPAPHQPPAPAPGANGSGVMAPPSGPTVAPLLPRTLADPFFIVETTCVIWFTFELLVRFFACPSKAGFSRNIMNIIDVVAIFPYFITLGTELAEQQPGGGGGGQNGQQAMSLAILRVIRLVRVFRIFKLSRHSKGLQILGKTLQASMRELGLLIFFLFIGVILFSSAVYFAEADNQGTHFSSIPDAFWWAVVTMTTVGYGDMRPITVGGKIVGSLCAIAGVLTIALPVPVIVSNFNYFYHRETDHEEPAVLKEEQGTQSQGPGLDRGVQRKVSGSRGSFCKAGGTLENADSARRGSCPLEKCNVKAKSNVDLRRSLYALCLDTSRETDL

SMILES	inhibition at 1 µM (human Kv1.3) [%]	inhibition at 1 µM (human Kv1.5) [%]	Kv 1.3% Inhibition at 1 μM (human Kv1.3) [%]	Kv 1.5% Inhibition at 1 μM (human Kv1.5) [%]
COc1cccc(-c2csc3ccnc(NCc4cccs4)c23)c1 [Example 13, [3-(3-Methoxy-phenyl)-thieno[3,2-c]pyridin-4-yl]-thiophen-2-ylmethyl-amine]	83.2	89.4	–	–
Fc1ccc(-c2csc3ccnc(NCc4cccs4)c23)cc1 [Example 15, [3-(4-Fluoro-phenyl)-thieno[3,2-c]pyridin-4-yl]thiophen-2-ylmethyl-amine]	91.9	87.2	–	–
c1csc(CNc2nccc3scc(-c4ccc5c(c4)OCO5)c23)c1 [Example 16, (3-Benzo[1,3]dioxol-5-yl-thieno[3,2-c]pyridin-4-yl)-thiophen-2-ylmethyl-amine]	90.3	81.2	–	–
Fc1ccc(-c2csc3ccnc(NCc4ccc5c(c4)OCCO5)c23)cc1 [Example 17, (2,3-Dihydro-benzo[1,4]dioxin-6-ylmethyl)-[3-(4-fluoro-phenyl)-thieno[3,2-c]pyridin-4-yl]-amine]	59.6	86.1	–	–
COc1cccc(-c2csc3ccnc(NCc4ccc5c(c4)OCCO5)c23)c1 [Example 19, (2,3-Dihydro-benzo[1,4]dioxin-6-ylmethyl)-[3-(3-methoxy-phenyl)-thieno[3,2-c]pyridin-4-yl)-amine]	73.5	75.6	–	–
c1cc2scc(-c3ccc4c(c3)OCO4)c2c(NCc2ccc3c(c2)OCCO3)n1 [Example 20, (3-Benzo[1,3]dioxol-5-yl-thieno[3,2-c]pyridin-4-yl)-(2,3-dihydro-benzo[1,4]dioxin-6-ylmethyl)-amine]	83.5	90.2	–	–
Fc1ccc(-c2csc3ccnc(NCc4ccco4)c23)cc1 [Example 27, [3-(4-Fluoro-phenyl)-thieno[3,2-c]pyridin-4-yl]-furan-2-ylmethyl-amine]	45.9	70.4	–	–
COc1cccc(-c2csc3ccnc(NCc4ccco4)c23)c1 [Example 28, Furan-2-ylmethyl-[3-(3-methoxy-phenyl)-thieno[3,2-c]pyridin-4-yl]-amine]	72.7	91.9	–	–
Cc1ccc(-c2csc3ccnc(NCc4ccco4)c23)cc1 [Example 29, Furan-2-ylmethyl-(3-p-tolyl-thieno[3,2-c]pyridin-4-yl)-amine]	66.2	86.1	–	–
Cc1ccc(-c2cnc(NCc3ccccc3)c3c(-c4ccc(C)cc4)csc23)cc1 [Example 33, Benzyl-(3,7-di-p-tolyl-thieno[3,2-c]pyridine-4-yl)-amine]	24.4	39.2	–	–
Cc1ccc(-c2csc3c(-c4ccccc4O)cnc(NCc4ccccc4)c23)cc1 [Example 35, 2-(4-Benzylamino-3-p-tolyl-thieno[3,2-c]pyridin-7-yl)-phenol]	12.6	33.3	–	–
Cc1ccc(-c2csc3c(-c4cccc(O)c4)cnc(NCc4ccccc4)c23)cc1 [Example 36, 3-(4-Benzylamino-3-p-tolyl-thieno[3,2-c]pyridin-7-yl)-phenol]	15.5	52.4	–	–
Cc1ccc(-c2csc3c(-c4ccc(O)cc4)cnc(NCc4ccccc4)c23)cc1 [Example 37, 4-(4-Benzylamino-3-p-tolyl-thieno[3,2-c]pyridin-7-yl)-phenol]	15.7	39.9	–	–
Cc1ccc(-c2csc3c(-c4cccc(C(=O)O)c4)cnc(NCc4ccccc4)c23)cc1 [Example 38, 3-(4-Benzylamino-3-p-tolyl-thieno[3,2-c]pyridin-7-yl)-benzoic acid]	41.3	84.8	–	–

Now from value to molecule:

inhibition at 1 µM (human Kv1.3) [%]	inhibition at 1 µM (human Kv1.5) [%]	Kv 1.3% Inhibition at 1 μM (human Kv1.3) [%]	Kv 1.5% Inhibition at 1 μM (human Kv1.5) [%]	SMILES
46.1	59.6	–	–	c1ccc(-c2csc3ccnc(NCc4ccccn4)c23)cc1 [Example 12, (3-Phenyl-thieno[3,2-c]pyridin-4-yl)-pyridin-2ylmethyl-amine]
91.2	81.9	–	–	c1ccc(-c2csc3ccnc(NCc4cccs4)c23)cc1 [Example 14, (3-Phenyl-thieno[3,2-c]pyridin-4-yl)-thiophen-2-ylmethyl-amine]
76.9	85.3	–	–	c1ccc(-c2csc3ccnc(NCc4ccc5c(c4)OCCO5)c23)cc1 [Example 18, (2,3-Dihydro-benzo[1,4]dioxin-6-ylmethyl)-(3-phenyl-thieno[3,2-c]pyridin-4-yl)-amine]
61.5	77.4	–	–	c1ccc(CNc2nccc3scc(-c4ccccc4)c23)cc1 [Example 21, Benzyl-(3-phenyl-thieno[3,2-c]pyridin-4-yl)-amine]
68.6	90.2	–	–	Fc1ccc(-c2csc3ccnc(NCc4ccccc4)c23)cc1 [Example 22, Benzyl-[3-(4-fluoro-phenyl)-thieno[3,2-c]pyridin-4-yl]-amine]
58	79.6	–	–	COc1cccc(-c2csc3ccnc(NCc4ccccc4)c23)c1 [Example 23, Benzyl-[3-(3-methoxy-phenyl)-thieno[3,2-c]pyridin-4-yl]-amine]
81.2	90.2	–	–	Cc1ccc(-c2csc3ccnc(NCc4ccccc4)c23)cc1 [Example 24, Benzyl-(3-p-tolyl-thieno[3,2-c]pyridin-4-yl)-amine]
58.1	70.5	–	–	c1ccc(CNc2nccc3scc(-c4ccc5c(c4)OCO5)c23)cc1 [Example 25, (3-Benzo[1,3]dioxol-5-yl-thieno[3,2-c]pyridin-4-yl)-benzyl-amine]
48.4	80.4	–	–	c1ccc(-c2csc3ccnc(NCc4ccco4)c23)cc1 [Example 26, Furan-2-ylmethyl-(3-phenyl-thieno[3,2-c]pyridin-4-yl)amine]
–	–	82.8	65.8	c1ccc(CCCCNc2nccc3scc(-c4ccccc4)c23)cc1 [Example 30, (4-Phenyl-butyl)-(3-phenyl-thieno[3,2-c]pyridin-4-yl)-amine]
–	–	71.8	78.4	Cc1cccnc1CNc1nccc2scc(-c3ccccc3)c12 [Example 31, (3-Methyl-pyridin-2-ylmethyl)-(3-phenyl-thieno[3,2-c]pyridin-4-yl)-amine]
8.1	25.6	–	–	Cc1ccc(-c2csc3c(-c4ccccc4)cnc(NCc4ccccc4)c23)cc1 [Example 34, Benzyl-(7-phenyl-3-p-tolyl-thieno[3,2-c]pyridine-4-yl)-amine]
